According to patent US20130129595A1 (SOLVAY SA, priority 2010, published 2013):

Experiment: Solubility of LiPO2F2, LiF and LiPF6 in organic solvents

Structure (SMILES)	Solubility (in words) (in aprotic organic solvents)	Solubility (in words) (in acetone)	Solubility (in words) (in dimethoxyethane)	Solubility (in words) (in dimethyl carbonate and propylene carbonate)
F[P-](F)(F)(F)(F)F.[Li+] [LiPF6]	comparably good solubility	–	–	–
[F-].[Li+] [LiF]	only very sparingly soluble	very low solubility	at most in negligible amounts	essentially insoluble
